Results on 15 compounds are retold here after patent publication US20250163104A1, “MACROCYCLIC IMMUNOMODULATORS” (priority 2021, published 2025).

Where a SMILES comes first, the peptide text is derived from it. Bridges are numbered along the chain shown (N, C = ends). [ ]: non-standard residue; d: D form. The star is where a group is joined. Phe(4-COOH) = N[C@@H](Cc1ccc(C(=O)O)cc1)C(=O)O; Bip = N[C@@H](Cc1ccc(-c2ccccc2)cc1)C(=O)O; 4Pal = N[C@@H](Cc1ccncc1)C(=O)O; Cha = N[C@@H](CC1CCCCC1)C(=O)O; dCha = N[C@H](CC1CCCCC1)C(=O)O; dNle = CCCC[C@@H](N)C(=O)O; Carboxymethyl = O=C(O)C*; Orn = NCCC[C@H](N)C(=O)O; Dab = NCC[C@H](N)C(=O)O; Dap = NC[C@H](N)C(=O)O

In general, IC50 refers to the midpoint of a concentration-inhibition curve.

T1 sequence (Q15116 25-288): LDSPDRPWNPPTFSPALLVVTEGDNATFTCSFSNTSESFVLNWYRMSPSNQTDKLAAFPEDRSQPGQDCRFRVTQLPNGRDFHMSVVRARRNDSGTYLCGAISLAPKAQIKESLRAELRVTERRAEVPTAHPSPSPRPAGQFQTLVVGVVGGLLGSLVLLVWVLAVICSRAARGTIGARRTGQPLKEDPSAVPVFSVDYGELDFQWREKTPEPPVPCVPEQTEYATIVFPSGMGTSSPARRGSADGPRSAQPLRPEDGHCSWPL

This test concerns the target T1, human PD-1 / PD-L1-Ig binding on Jurkat cell line over-expressing human PD-1 (Jurkat-PD-1) (Homo sapiens, UniProt Q15116).
T1 construct: expressed in transfected cells; host or cells: Jurkat
Briefly: Jurkat-PD-1 Cell Binding High-Content Screening Assay (CBA). In kind it is cell-based. As to conditions: Jurkat-PD-1 cells, PE-labeled PD-L1-Ig 20 nM final; read-out: Jurkat HPD1_PDL1 IC50. In outline: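 PE-PD-L1-Ig 20 nM final; cells in DMEM/10% FCS; cpd pre-incubation 2 h, 37° C; ligand 1 h; PFA fix + Hoechst 33342; high-content imaging read-out.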
Take `CC(C)[C@@H]1NC(=O)[C@H](Cc2c[nH]c3ccccc23)NC(=O)[C@H](CC(=O)O)NC(=O)[C@H](Cc2ccncc2)NC(=O)[C@H](Cc2ccc(OCC(=O)O)cc2)NC(=O)CSC[C@@H](C(=O)N[C@@H](C)C(N)=O)NC(=O)[C@H]([C@@H](C)O)NC(=O)[C@H](C(C)C)NC(=O)[C@H](CC2CCCCC2)NC(=O)[C@H](CCN)NC(=O)[C@@H](CC2CCCCC2)NC(=O)[C@H](CCCN)NC(=O)[C@H](CCC(=O)O)NC(=O)[C@H](Cc2ccc(-c3ccccc3)cc2)NC1=O` [Compound 1441] ({CH2CO}-Y(Carboxymethyl)[4Pal]DWV[Bip]E[Orn][dCha][Dab][Cha]VTCA-NH2; thioether N-14): the concentration for half-maximal inhibition (IC50) turned out to be 13.4 nM.

Consider `CC(C)[C@@H]1NC(=O)[C@H](Cc2c[nH]c3ccccc23)NC(=O)[C@H](CC(=O)O)NC(=O)[C@H](Cc2ccc(O)cc2)NC(=O)[C@H](CC(N)=O)NC(=O)CSC[C@@H](C(=O)N[C@@H](C)C(N)=O)NC(=O)[C@H]([C@@H](C)O)NC(=O)[C@H](C(C)C)NC(=O)[C@H](CC2CCCCC2)NC(=O)[C@H](CCN)NC(=O)[C@@H](CC2CCCCC2)NC(=O)[C@H](CCCN)NC(=O)[C@H](CCC(=O)O)NC(=O)[C@H](Cc2ccc(-c3ccccc3)cc2)NC1=O` [Compound 1442] ({CH2CO}-NYDWV[Bip]E[Orn][dCha][Dab][Cha]VTCA-NH2; thioether N-14), for which the IC50 was determined as 15.9 nM. Turning to `CC(C)[C@@H]1NC(=O)[C@H](Cc2c[nH]c3ccccc23)NC(=O)[C@H](CC(=O)O)NC(=O)[C@H](Cc2ccc(OCC(=O)O)cc2)NC(=O)[C@H](CN)NC(=O)CSC[C@@H](C(=O)N[C@@H](C)C(N)=O)NC(=O)[C@H]([C@@H](C)O)NC(=O)[C@H](C(C)C)NC(=O)[C@H](CC2CCCCC2)NC(=O)[C@H](CCN)NC(=O)[C@@H](CC2CCCCC2)NC(=O)[C@H](CCCN)NC(=O)[C@H](CCC(=O)O)NC(=O)[C@H](Cc2ccc(-c3ccccc3)cc2)NC1=O` [Compound 1443] ({CH2CO}-[Dap]Y(Carboxymethyl)DWV[Bip]E[Orn][dCha][Dab][Cha]VTCA-NH2; thioether N-14), the IC50 was 11.8 nM. For `CC(C)[C@@H]1NC(=O)[C@H](Cc2c[nH]c3ccccc23)NC(=O)[C@H](CC(=O)O)NC(=O)[C@H](Cc2ccc(C(=O)O)cc2)NC(=O)[C@H](Cc2ccc(OCC(=O)O)cc2)NC(=O)CSC[C@@H](C(=O)N[C@@H](C)C(N)=O)NC(=O)[C@H]([C@@H](C)O)NC(=O)[C@H](C(C)C)NC(=O)[C@H](CC2CCCCC2)NC(=O)[C@H](CCN)NC(=O)[C@@H](CC2CCCCC2)NC(=O)[C@H](CCCN)NC(=O)[C@H](CCC(=O)O)NC(=O)[C@H](Cc2ccc(-c3ccccc3)cc2)NC1=O` [Compound 1444] ({CH2CO}-Y(Carboxymethyl)[Phe(4-COOH)]DWV[Bip]E[Orn][dCha][Dab][Cha]VTCA-NH2; thioether N-14) the value was 5.7 nM; for `CC(C)[C@@H]1NC(=O)[C@H](Cc2c[nH]c3ccccc23)NC(=O)[C@H](CC(=O)O)NC(=O)[C@H](Cc2ccc(C(=O)O)cc2)NC(=O)[C@H](Cc2ccncc2)NC(=O)CSC[C@@H](C(=O)N[C@@H](C)C(N)=O)NC(=O)[C@H]([C@@H](C)O)NC(=O)[C@H](C(C)C)NC(=O)[C@H](CC2CCCCC2)NC(=O)[C@H](CCN)NC(=O)[C@@H](Cc2ccc(O)cc2)NC(=O)[C@H](CCCN)NC(=O)[C@H](CCC(=O)O)NC(=O)[C@H](Cc2ccc(-c3ccccc3)cc2)NC1=O` [Compound 1445] ({CH2CO}-[4Pal][Phe(4-COOH)]DWV[Bip]E[Orn][dY][Dab][Cha]VTCA-NH2; thioether N-14), 19.5 nM; for `CC(C)[C@@H]1NC(=O)[C@H](Cc2c[nH]c3ccccc23)NC(=O)[C@H](CC(=O)O)NC(=O)[C@H](Cc2ccncc2)NC(=O)[C@H](CN)NC(=O)CSC[C@@H](C(=O)N[C@@H](C)C(N)=O)NC(=O)[C@H]([C@@H](C)O)NC(=O)[C@H](C(C)C)NC(=O)[C@H](CC2CCCCC2)NC(=O)[C@H](CCN)NC(=O)[C@@H](Cc2ccc(O)cc2)NC(=O)[C@H](CCCN)NC(=O)[C@H](CCC(=O)O)NC(=O)[C@H](Cc2ccc(-c3ccccc3)cc2)NC1=O` [Compound 1446] ({CH2CO}-[Dap][4Pal]DWV[Bip]E[Orn][dY][Dab][Cha]VTCA-NH2; thioether N-14), 64.5 nM. `CC(C)[C@@H]1NC(=O)[C@H](Cc2c[nH]c3ccccc23)NC(=O)[C@H](CC(=O)O)NC(=O)[C@H](Cc2ccncc2)NC(=O)[C@H](Cc2ccc(OCC(=O)O)cc2)NC(=O)CSC[C@@H](C(=O)N[C@@H](C)C(N)=O)NC(=O)[C@H]([C@@H](C)O)NC(=O)[C@H](C(C)C)NC(=O)[C@H](CC2CCCCC2)NC(=O)[C@H](CCN)NC(=O)[C@@H](Cc2ccc(O)cc2)NC(=O)[C@H](CCCN)NC(=O)[C@H](CCC(=O)O)NC(=O)[C@H](Cc2ccc(-c3ccccc3)cc2)NC1=O` [Compound 1447] ({CH2CO}-Y(Carboxymethyl)[4Pal]DWV[Bip]E[Orn][dY][Dab][Cha]VTCA-NH2; thioether N-14): the half-inhibitory concentration (IC50) is 29.8 nM.

Consider `CC(C)[C@@H]1NC(=O)[C@H](Cc2c[nH]c3ccccc23)NC(=O)[C@H](CC(=O)O)NC(=O)[C@H](Cc2ccc(OCC(=O)O)cc2)NC(=O)[C@H](CN)NC(=O)CSC[C@@H](C(=O)N[C@@H](C)C(N)=O)NC(=O)[C@H]([C@@H](C)O)NC(=O)[C@H](C(C)C)NC(=O)[C@H](CC2CCCCC2)NC(=O)[C@H](CCN)NC(=O)[C@@H](Cc2ccc(O)cc2)NC(=O)[C@H](CCCN)NC(=O)[C@H](CCC(=O)O)NC(=O)[C@H](Cc2ccc(-c3ccccc3)cc2)NC1=O` [Compound 1448] ({CH2CO}-[Dap]Y(Carboxymethyl)DWV[Bip]E[Orn][dY][Dab][Cha]VTCA-NH2; thioether N-14), for which the IC50 is 26.9 nM. `CC(C)[C@@H]1NC(=O)[C@H](Cc2c[nH]c3ccccc23)NC(=O)[C@H](CC(=O)O)NC(=O)[C@H](Cc2ccc(C(=O)O)cc2)NC(=O)[C@H](Cc2ccc(OCC(=O)O)cc2)NC(=O)CSC[C@@H](C(=O)N[C@@H](C)C(N)=O)NC(=O)[C@H]([C@@H](C)O)NC(=O)[C@H](C(C)C)NC(=O)[C@H](CC2CCCCC2)NC(=O)[C@H](CCN)NC(=O)[C@@H](Cc2ccc(O)cc2)NC(=O)[C@H](CCCN)NC(=O)[C@H](CCC(=O)O)NC(=O)[C@H](Cc2ccc(-c3ccccc3)cc2)NC1=O` [Compound 1449] ({CH2CO}-Y(Carboxymethyl)[Phe(4-COOH)]DWV[Bip]E[Orn][dY][Dab][Cha]VTCA-NH2; thioether N-14): the IC50 was 32.9 nM.

For `CCCC[C@H]1NC(=O)[C@H](CCCN)NC(=O)[C@H](CCC(=O)O)NC(=O)[C@H](Cc2ccc(-c3ccccc3)cc2)NC(=O)[C@H](C(C)C)NC(=O)[C@H](Cc2c[nH]c3ccccc23)NC(=O)[C@H](CC(=O)O)NC(=O)[C@H](Cc2ccc(C(=O)O)cc2)NC(=O)[C@H](Cc2ccncc2)NC(=O)CSC[C@@H](C(=O)N[C@@H](C)C(N)=O)NC(=O)[C@H]([C@@H](C)O)NC(=O)[C@H](C(C)C)NC(=O)[C@H](CC2CCCCC2)NC(=O)[C@H](CCN)NC1=O` [Compound 1450], the IC50 is 7.6 nM.

As for `CCCC[C@H]1NC(=O)[C@H](CCCN)NC(=O)[C@H](CCC(=O)O)NC(=O)[C@H](Cc2ccc(-c3ccccc3)cc2)NC(=O)[C@H](C(C)C)NC(=O)[C@H](Cc2c[nH]c3ccccc23)NC(=O)[C@H](CC(=O)O)NC(=O)[C@H](Cc2ccncc2)NC(=O)[C@H](Cc2ccc(OCC(=O)O)cc2)NC(=O)CSC[C@@H](C(=O)N[C@@H](C)C(N)=O)NC(=O)[C@H]([C@@H](C)O)NC(=O)[C@H](C(C)C)NC(=O)[C@H](CC2CCCCC2)NC(=O)[C@H](CCN)NC1=O` [Compound 1451] ({CH2CO}-Y(Carboxymethyl)[4Pal]DWV[Bip]E[Orn][dNle][Dab][Cha]VTCA-NH2; thioether N-14), the IC50 came out at 10.3 nM. In the case of `CCCC[C@H]1NC(=O)[C@H](CCCN)NC(=O)[C@H](CCC(=O)O)NC(=O)[C@H](Cc2ccc(-c3ccccc3)cc2)NC(=O)[C@H](C(C)C)NC(=O)[C@H](Cc2c[nH]c3ccccc23)NC(=O)[C@H](CC(=O)O)NC(=O)[C@H](Cc2ccncc2)NC(=O)[C@H](CN)NC(=O)CSC[C@@H](C(=O)N[C@@H](C)C(N)=O)NC(=O)[C@H]([C@@H](C)O)NC(=O)[C@H](C(C)C)NC(=O)[C@H](CC2CCCCC2)NC(=O)[C@H](CCN)NC1=O` [Compound 1452] ({CH2CO}-[Dap][4Pal]DWV[Bip]E[Orn][dNle][Dab][Cha]VTCA-NH2; thioether N-14), the IC50 was determined as 25.2 nM. As for `CCCC[C@H]1NC(=O)[C@H](CCCN)NC(=O)[C@H](CCC(=O)O)NC(=O)[C@H](Cc2ccc(-c3ccccc3)cc2)NC(=O)[C@H](C(C)C)NC(=O)[C@H](Cc2c[nH]c3ccccc23)NC(=O)[C@H](CC(=O)O)NC(=O)[C@H](Cc2ccc(O)cc2)NC(=O)[C@H](CC(N)=O)NC(=O)CSC[C@@H](C(=O)N[C@@H](C)C(N)=O)NC(=O)[C@H]([C@@H](C)O)NC(=O)[C@H](C(C)C)NC(=O)[C@H](CC2CCCCC2)NC(=O)[C@H](CCN)NC1=O` [Compound 1453] ({CH2CO}-NYDWV[Bip]E[Orn][dNle][Dab][Cha]VTCA-NH2; thioether N-14), the IC50 stood at 9.7 nM. As to `CCCC[C@H]1NC(=O)[C@H](CCCN)NC(=O)[C@H](CCC(=O)O)NC(=O)[C@H](Cc2ccc(-c3ccccc3)cc2)NC(=O)[C@H](C(C)C)NC(=O)[C@H](Cc2c[nH]c3ccccc23)NC(=O)[C@H](CC(=O)O)NC(=O)[C@H](Cc2ccc(OCC(=O)O)cc2)NC(=O)[C@H](CN)NC(=O)CSC[C@@H](C(=O)N[C@@H](C)C(N)=O)NC(=O)[C@H]([C@@H](C)O)NC(=O)[C@H](C(C)C)NC(=O)[C@H](CC2CCCCC2)NC(=O)[C@H](CCN)NC1=O` [Compound 1454], the IC50 amounted to 11.9 nM. Consider `CCCC[C@H]1NC(=O)[C@H](CCCN)NC(=O)[C@H](CCC(=O)O)NC(=O)[C@H](Cc2ccc(-c3ccccc3)cc2)NC(=O)[C@H](C(C)C)NC(=O)[C@H](Cc2c[nH]c3ccccc23)NC(=O)[C@H](CC(=O)O)NC(=O)[C@H](Cc2ccc(C(=O)O)cc2)NC(=O)[C@H](Cc2ccc(OCC(=O)O)cc2)NC(=O)CSC[C@@H](C(=O)N[C@@H](C)C(N)=O)NC(=O)[C@H]([C@@H](C)O)NC(=O)[C@H](C(C)C)NC(=O)[C@H](CC2CCCCC2)NC(=O)[C@H](CCN)NC1=O` [Compound 1455], for which the IC50 was 8.3 nM.
